This assay concerns the target T1, Indoleamine 2,3-dioxygenase 1 (IDO1) (Homo sapiens, UniProt P14902).
T1 construct: recombinant human IDO1, N-His-tag, expressed in E. coli
Nature of the assay: methylene blue/ascorbate assay of purified recombinant IDO1, HPLC; Lineweaver-Burk kinetics. It counts as biochemical.

T1 sequence (P14902 whole entry): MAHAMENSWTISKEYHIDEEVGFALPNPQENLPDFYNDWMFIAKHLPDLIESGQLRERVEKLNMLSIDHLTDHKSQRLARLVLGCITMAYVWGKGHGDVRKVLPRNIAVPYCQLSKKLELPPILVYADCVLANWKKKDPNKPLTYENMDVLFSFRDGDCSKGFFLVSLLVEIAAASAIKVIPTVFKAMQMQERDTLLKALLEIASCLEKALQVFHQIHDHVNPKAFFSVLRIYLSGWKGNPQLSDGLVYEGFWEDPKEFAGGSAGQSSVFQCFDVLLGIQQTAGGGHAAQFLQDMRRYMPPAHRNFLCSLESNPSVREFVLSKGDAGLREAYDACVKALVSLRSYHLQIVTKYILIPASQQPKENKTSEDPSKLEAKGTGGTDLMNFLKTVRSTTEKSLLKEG

The term IC50 denotes the concentration at which inhibition is half-maximal. On to galanal, for which the half-maximal inhibitory concentration (IC50) amounted to 7.7 µM.
